Bounds are passed on as bounds.

Data set [1] is described as follows: Competitive water activity study. It is filed as physicochemical. The procedure: Competitive water activity experiments at 25° C. were conducted for hydrate Pattern A and anhydrate Pattern G. Pattern A, and Pattern G, were equilibrated at 25° C. in 6 different water activities with acetone/water mixtures. Obtained suspensions were stirred at 25° C. for 3 days and 7 days. Obtained suspensions were centrifuged and obtained solids were analyzed by XRPD immediately.
Competitive water activity experiments at 25° C. were conducted for hydrate Pattern A and anhydrate Pattern M. Pattern A, and Pattern M were equilibrated at 25° C. in 6 different water activities with acetone/water mixtures. Obtained suspension was stirred at 25° C. for 3 days and 7 days. Obtained suspensions were centrifuged and obtained solids were analyzed by XRPD immediately.

In data set [2] the target is T1, BRD9 (Homo sapiens, UniProt Q9H8M2).
T1 sequence (Q9H8M2 1-597): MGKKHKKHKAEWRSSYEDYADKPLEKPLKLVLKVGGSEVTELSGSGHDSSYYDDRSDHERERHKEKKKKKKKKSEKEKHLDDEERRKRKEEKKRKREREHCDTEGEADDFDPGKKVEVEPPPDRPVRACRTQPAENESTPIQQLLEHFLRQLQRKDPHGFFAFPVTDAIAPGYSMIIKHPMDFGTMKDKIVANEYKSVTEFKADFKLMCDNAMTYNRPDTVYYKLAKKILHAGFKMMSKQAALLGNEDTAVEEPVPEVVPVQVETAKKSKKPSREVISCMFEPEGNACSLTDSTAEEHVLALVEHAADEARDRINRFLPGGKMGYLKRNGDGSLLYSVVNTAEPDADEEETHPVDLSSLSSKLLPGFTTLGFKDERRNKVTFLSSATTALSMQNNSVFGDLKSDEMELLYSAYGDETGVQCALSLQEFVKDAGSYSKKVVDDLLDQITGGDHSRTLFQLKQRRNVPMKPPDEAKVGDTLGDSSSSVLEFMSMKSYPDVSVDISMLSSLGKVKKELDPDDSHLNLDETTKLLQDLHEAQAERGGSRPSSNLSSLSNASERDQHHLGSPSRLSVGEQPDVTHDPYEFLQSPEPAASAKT
The experiment in a line: BRD9 HiBiT degradation assay in 293T.166 (HEK293T.166) cells. In kind it is cell-based. Set-up: endogenously expressing BRD9 with HiBiT fusion tag via CRISPR; host or cells: HEK293T.166 (293T.166, BRD9-HiBiT HEK293, LgBiT by lentivirus). How it is done: Selected compounds were tested in a BRD9 degradation assay using the HiBit Method.
Dulbecco's modified Eagle medium (DMEM) without phenol red and fetal bovine serum (FBS) were purchased from Gibco (Grand Island, NY, USA). Nano-Glo® HiBiT Lytic Assay System was purchased from Promega (Madison, WI, USA). 293T.166 (BRD9-HiBiT) cell line, endogenously expressing BRD9 with HiBiT fusion tag via CRISPR and ectopically expressing LgBiT tag, was purchased from Promega (Madison, WI, USA). 293T.167 (BRD7-HiBiT) cell line, endogenously expressing BRD7 with HiBiT fusion tag via CRISPR and ectopically expressing LgBiT tag, was purchased from Promega (Madison, WI, USA). 293T.92 (BRD4-HiBiT) cell line, endogenously expressing BRD4 with HiBiT fusion tag via CRISPR and ectopically expressing LgBiT tag, was generated in-house. Cell culture flasks and 384-well microplates were acquired from VWR (Radnor, PA, USA).
BRD9 degradation was determined based on quantification of luminescent signal using Nano-Glo® HiBiT Lytic Assay kit. Test compounds were added to the 384-well plate from a top concentration of 10 μM with 11 points, half log titration in duplicates. 293T.166 cells were added into 384-well plates at a cell density of 10,000 cells per well. The plates were kept at 37° C. with 5% CO2 for 2 hours. BRD7 and BRD4 degradation was similarly determined with 293T.167 cells and 293T.92 cells, respectively. The cells treated in the absence of the test compound were the negative control and the cells without Nano-Glo® HiBiT Lytic reagent were the positive control. After 2-hour incubation, Nano-Glo® HiBiT Lytic Assay reagents were added to the cells. Luminescence was acquired on EnVision® Multilabel Reader (Catalog No. 2104-0010, Perkin Elmer Inc., Dumfries, VA, USA).
This assay evaluates the degradation of BRD9 induced by treatment with Compound 1 or Compound 2 as measured by luminescence using Nano-Glo® HiBiT Lytic Assay System in HEK293 cells CRISPR-edited to endogenously express HiBiT tagged BRD9 and exogenously express LgBiT protein.
Nano-Glo® HiBiT Lytic Assay System was purchased from Promega (Catalog No. N3050, Madison, WI, USA). BRD9-HiBiT HEK293 cells were purchased from Promega (Catalog No. CS302348, Madison, WI, USA). The cells were maintained in Dulbecco's modified Eagle medium (DMEM) without phenol red (Catalog No. 12430112, ThermoFisher Scientific, Waltham, MA, USA) supplemented with 10% fetal bovine serum (FBS) (Catalog No. 16000-044, Gibco, Grand Island, NY, USA) at 37° C. in an atmosphere of 5% CO2 in air. The HiBiT polypeptide tag was introduced into the C-terminus of the endogenous BRD9 locus by CRISPR-Cas9 and the LgBiT protein was introduced via Lentiviral infection to produce the modified HEK293T.166 cell line. The HiBiT polypeptide and LgBiT protein allow reconstitution of NanoBiT enzyme in the cells. The Nano-Glo® HiBiT Lytic Substrate was then added and activated by the NanoBiT enzyme following cell lysis to produce a luminescent signal that is directly proportional to the amount of HiBiT-tagged BRD9.
The HEK293T.166 cells were routinely sub-cultured to maintain cell density between 30-80% confluence, not to exceed 20 passages. Cells were washed with PBS pH 7.4 (Catalog No. 10010049, ThermoFisher Scientific, Waltham, MA, USA), trypsinized for 5 minutes at 37° C., and resuspended in fresh growth media without phenol red. An aliquot was diluted 2× with Trypan Blue solution 0.4% (Catalog No. 15250061, ThermoFisher Scientific, Waltham, MA, USA) and cell count determined. Cell concentration was adjusted with growth media without phenol red to 3.3×10^5 cells/mL.
Compound 1 or Compound 2 was prepared by dissolving neat compounds in DMSO (Catalog No. D8418, Sigma-Aldrich, Inc., St. Louis, MO, USA) to generate 10 mM stock solution and stored at −20° C. […]
In general terms: HiBiT is a short tag that completes a luciferase, so light tracks the accessible tagged protein.

The mark [3] stands for this setting: Acetone/water (v:v = 60:40), a.w. 0.8.
Where [4] appears, read: Acetone/water (v:v = 86:14), a.w. 0.6.
Where [5] appears, read: Acetone/water (v:v = 95:5), a.w. 0.4.
[6] abbreviates: Acetone/water (v:v = 98:2), a.w. 0.2.

Turning to `COc1cc(-c2cn(C)c(=O)c(C)c2C)cc(OC)c1CN1CC[C@H](N2CCN(c3ccc(N[C@H]4CCC(=O)NC4=O)cc3F)CC2)C(F)(F)C1` [Pattern A, Pattern C, Pattern D, and Pattern E], the XRPD-7 days result in data set [1] (Acetone, a.w. 0.0) is on record as “Pattern B”; in data set [1] (Acetone/water (v:v = 36:64), a.w. 0.9), “Pattern K”; in data set [1] (Acetone/water (v:v = 76:24), a.w. 0.7) it was “Pattern K”; in data set [1] (Acetone/water (v:v = 92:8), a.w. 0.5) it was “Pattern B”; in data set [1] (Acetone/water (v:v = 97:30), a.w. 0.3) it was “Pattern B”; in data set [1] (Acetone/water (v:v = 99.5:0.5), a.w. 0.1), “Pattern B”. For the same compound, in data set [1] (Water, a.w. 1.0), the XRPD-7 days entry is reported as “Pattern K”.
`COc1cc(-c2cn(C)c(=O)c(C)c2C)cc(OC)c1CN1CC[C@H](N2CCN(c3ccc(N[C@H]4CCC(=O)NC4=O)cc3F)CC2)C(F)(F)C1` [Pattern A and Pattern G]: the XRPD-3 days result was “Pattern B” in data set [1] (Acetone, a.w. 0.0); “Pattern K” in data set [1] (setting [3]); “Pattern B” in data set [1] (setting [4]); “Pattern B” in data set [1] (setting [5]); “Pattern B” in data set [1] (setting [6]). The XRPD-7 days entry in data set [1] (Acetone, a.w. 0.0) was “Pattern N”; in data set [1] (setting [3]), “Pattern K”; in data set [1] (setting [4]) it was “Pattern B”; in data set [1] (setting [5]), “Pattern N”; in data set [1] (setting [6]), “Pattern N”; in data set [1] (Water, a.w. 1.0) it was “Pattern K”.
For `COc1cc(-c2cn(C)c(=O)c(C)c2C)cc(OC)c1CN1CC[C@H](N2CCN(c3ccc(N[C@H]4CCC(=O)NC4=O)cc3F)CC2)C(F)(F)C1` [Pattern A and Pattern M], the XRPD-3 days result was “Pattern N” in data set [1] (Acetone, a.w. 0.0); “Pattern K” in data set [1] (setting [3]); “Pattern N” in data set [1] (setting [4]); “Pattern N” in data set [1] (setting [5]); “Pattern N” in data set [1] (setting [6]); “Pattern K” in data set [1] (Water, a.w. 1.0). The XRPD-7 days result is listed as “Pattern N” in data set [1] (Acetone, a.w. 0.0); “Pattern A” in data set [1] (setting [3]); “Pattern N” in data set [1] (setting [4]); “Pattern N” in data set [1] (setting [5]); “Pattern N” in data set [1] (setting [6]); “Pattern A” in data set [1] (Water, a.w. 1.0).
Usually DC50 stands for the midpoint of the concentration-degradation curve. In general, Emax refers to the greatest response seen or fitted, relative to the assay's reference. `COc1cc(-c2cn(C)c(=O)c(C)c2C)cc(OC)c1CN1CC[C@H](N2CCN(c3ccc(N[C@@H]4CCC(=O)NC4=O)cc3F)CC2)C(F)(F)C1` [Compound 2]: the “% BRD9 Remaining Relative to Vehicle Control at 2 hr, Mean” value in data set [2] (0.010 nM) stood at 103.0%; in data set [2] (0.032 nM) it was 95.9%; in data set [2] (0.100 nM), 105.0%; in data set [2] (0.315 nM), 103.3%; in data set [2] (0.997 nM) it was 105.4%; in data set [2] (3.15 nM) it was 100.2%. Besides, the “% BRD9 Remaining Relative to Vehicle Control at 2 hr, Mean” value is reported as 87.1% in data set [2] (10.0 nM); 75.4% in data set [2] (31.7 nM); 49.0% in data set [2] (100 nM); 33.1% in data set [2] (316 nM); 39.0% in data set [2] (999 nM). Further, the DC50 in data set [2] (293T.166 cells, 2.0 hours, read-out: HiBiT-Degradation 293T.166 BRD9 2.0 hours (DC50)) is less than 100 nM. For the same compound, in data set [2] (BRD9-HiBiT, 293T.166 cells, 2 hours, read-out: Mean Emax (%) ± SD), the Emax was determined as 33.1 ± 9.92%. Moreover, the Dmax in data set [2] (HEK293T.166 cells, 2-hour treatment, read-out: maximal degradation of BRD9) was roughly 70%.

The values are drawn from patent US20240245677A1, “SELECTED COMPOUNDS FOR TARGETED DEGRADATION OF BRD9” (C4 THERAPEUTICS, INC., priority 2021, published 2024).
